According to ChEMBL document CHEMBL1141624, “Discovery of small molecule benzimidazole antagonists of the chemokine receptor CXCR3” (Bioorg Med Chem Lett, 2008):
≈ marks a conversion by molar mass, not a printed value.

Key:
[1] = target: T1, C-X-C chemokine receptor type 3 (Homo sapiens, UniProt P49682); experiment: Displacement of [125]CXCL10 from human CXCR3 expressed in CHO cells; type: cell-based
T1 sequence (P49682 whole entry): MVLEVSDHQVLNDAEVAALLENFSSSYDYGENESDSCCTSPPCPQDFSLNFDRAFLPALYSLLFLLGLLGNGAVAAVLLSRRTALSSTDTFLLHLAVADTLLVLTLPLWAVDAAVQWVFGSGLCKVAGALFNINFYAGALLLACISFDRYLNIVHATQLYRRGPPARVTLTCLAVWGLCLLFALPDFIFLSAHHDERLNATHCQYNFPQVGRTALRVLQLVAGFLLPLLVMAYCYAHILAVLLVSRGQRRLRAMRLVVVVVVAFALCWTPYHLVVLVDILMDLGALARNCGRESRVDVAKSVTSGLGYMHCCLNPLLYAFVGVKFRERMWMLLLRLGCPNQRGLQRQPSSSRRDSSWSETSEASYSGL

[2] = target: T1, C-X-C chemokine receptor type 3; experiment: Antagonist activity at human CXCR3 expressed in CHO cells by FLIPR-based calcium mobilization assay; type: functional, cell-based
[3] = Half life in SJL mouse at 20 mg/kg, po; type: ADME, organism-based; parameters: dose 20 mg/kg, route oral; settings: in vivo
[4] = Clearance in SJL mouse at 10 mg/kg, po and 5 mg/kg, iv; type: ADME, organism-based; settings: in vivo
[5] = Aqueous solubility of the compound; type: physicochemical; settings: buffer
Liver microsomes = experiment: Stability in rat liver microsome; type: ADME
[6] = Protein binding in rat plasma; type: ADME, cell-free; settings: read-out: PPB (converted)
[7] = Bioavailability in SJL mouse at 20 mg/kg, po; type: ADME, organism-based; settings: in vivo

Compound | IC50 [1] [µM] | also measured
CCCc1cccc2c1n(C)c(=N)n2CC(=O)c1ccc(Cl)cc1 | 0.5 | IC50 [2]: 0.4 µM
Cn1c(=N)n(CC(=O)c2ccc(Br)cc2)c2ccccc21 | 0.8 | 
Cc1cccc2c1n(C)c(=N)n2CC(=O)c1ccc(Cl)cc1 | 0.1 | half-life [3]: 4.9 h; clearance [4]: 95 mL/min/kg; solubility [5]: 79 µM (≈ 24.8 µg/mL); IC50 [2]: 0.08 µM; Stability (Liver microsomes): 49%; fraction unbound [6]: 0.15; bioavailability [7]: 57%
Cn1c(=N)n(CC(=O)c2ccc(Cl)cc2)c2cccc(Cl)c21 | 0.3 | 
Cc1ccc2c(c1)n(C)c(=N)n2CC(=O)c1ccc(Cl)cc1 | 1 | IC50 [2]: 5 µM
Cn1c(=N)n(CC(=O)c2cccc(Cl)c2)c2ccccc21 | 16 | 
CCc1cccc2c1n(C)c(=N)n2CC(=O)c1ccc(Cl)cc1 | 0.03 | IC50 [2]: 0.07 µM
Cn1c(=N)n(CC(=O)c2ccc(Cl)c(Cl)c2)c2ccccc21 | 4 | 
C[S+]([O-])c1nc2ccccc2n1CC(=O)c1ccc([N+](=O)[O-])cc1 (stereo not given) | 11 | 
CC(=O)c1nc2cc(-c3ccccc3)ccc2n1CC(=O)c1ccc(Br)cc1 | > 50 | 
COc1ccc2c(c1)nc(C(C)=O)n2CC(=O)c1ccc(Br)cc1 | > 50 | 
COc1ccc2nc(C(C)=O)n(CC(=O)c3ccc(Br)cc3)c2c1 | > 50 | 
CC(=O)c1nc2ccccc2n1CC(=O)c1ccccc1 | > 100 | 
CC(=O)c1nc2ccccc2n1CC(=O)c1ccc(Br)cc1 | 2 | 
Cn1c(=N)n(CC(=O)c2ccc(Cl)cc2)c2ccccc21 | 0.8 | solubility [5]: 84 µM (≈ 25.2 µg/mL); IC50 [2]: 9 µM
COc1cccc2c1n(C)c(=N)n2CC(=O)c1ccc(Br)cc1 | 0.8 | 

Compound | IC50 [1] [µM] | also measured
CC(=O)c1nc2ccccc2n1CC(=O)c1ccc([N+](=O)[O-])cc1 | 3 | solubility [5]: 4.5 µM (≈ 1.45 µg/mL)
Cn1c(=N)n(CCc2ccc(Br)cc2)c2ccccc21 | 11 | 
Cn1c(=N)n(C[S+]([O-])c2ccc(Cl)cc2)c2ccccc21 (stereo not given) | 3 | 
COCC/N=c1/n(C)c2ccccc2n1CC(=O)c1ccc(Br)cc1 | 1 | 
CC(O)c1nc2ccccc2n1CC(=O)c1ccc([N+](=O)[O-])cc1 (stereo not given) | 20 | 
Cn1c(=N)n(CC(=O)c2ccc(Cl)cc2)c2cccc(C(F)(F)F)c21 | 0.7 | 
Cc1ccc2c(c1)n(CC(=O)c1ccc(Cl)cc1)c(=N)n2C | 8 | 
Cn1c(=N)n(CC(O)c2ccc(Br)cc2)c2ccccc21 (stereo not given) | 40 | 
Cn1c(=N)n(CCCC(=O)c2ccc(Br)cc2)c2ccccc21 | 6 | 
CC(=O)c1nc2ccccc2n1CC(=O)c1ccc(C#N)cc1 | > 100 | 
CC(=O)c1nc2ccccc2n1CC(=O)c1ccc(Cl)cc1 | 8 | 
COc1cccc2c1nc(C(C)=O)n2CC(=O)c1ccc(Br)cc1 | 3 | 
Cn1c(=N)n(CC(=O)c2ccccc2Cl)c2ccccc21 | 22 | 
CC(=O)c1nc2ccc(-c3ccccc3)cc2n1CC(=O)c1ccc(Br)cc1 | > 50 | 
CC(=O)/N=c1/n(C)c2ccccc2n1CC(=O)c1ccc([N+](=O)[O-])cc1 | 50 | 
C/N=c1/n(C)c2ccccc2n1CC(=O)c1ccc(Cl)cc1 | 0.8 | 
